This is an account of results in US11447577B2, “Cyclodextrin based polymers, methods, compositions and applications thereof” (priority 2016, dated 2022).

One series in a line: in vivo. Set-up: species or system mice. To be noted: mouse, sc, 500 mg/kg. The protocol:
The effects of various cyclodextrin polymers were tested on WT mice. WT mice were injected with a single sub-cutaneous dose of 500 mg/kg of HPbCD, Polymer A, or Polymer B. PK measurements were taken every 2 hours via HPLC-UV measurements of mouse plasma. FIG. 28 presents the half-life results of this experiment. […] The recovery was 90% from plasma and tissues.

Another series relates to nmf164 mice. The note with it: 4000 mg/kg; cited from earlier work.
For a further series, the system named is Npc1^nih mice. Kind of series: Efficacy study in Npc1^nih mouse model (body weight, balance beam test, survival). It counts as in vivo. To be noted: HPβCD 4 mg/g s.c. weekly starting at PN7. The procedure: Npc1^nih mouse model is a model for an early onset and faster progressing human diseases. This mouse model arises from the insertion of an active retrotransposon, a spontaneous mutation, which generated a frameshift resulting in a “knock out” of Npc1 gene: small amount of truncated Npc1 mRNA and no protein.
Npc1^nih mice received Polymer B (0.8 mg/g body weight) via injection (s.c.) at the scruff of the neck at PN4, PN7, and PN14. Another group of Npc1^nih mice received HPβCD (4 mg/g body weight; obtained from Sigma-Aldrich and used as received, CAS: 128446-35-5) via injected (s.c.) weekly starting at PN7. Control mice received PBS (sham). Mean volume of the injection was between 50 to 100 μL according to mice size. The body weight, motor behaviour, and survival rate of each group of mice were analyzed.
Example 5 was repeated for Npc1^nih mice receiving Polymer A (0.4 mg/g body weight) via injected (s.c.) weekly starting at PN7 and ending at PN70. The body weight and motor behaviours were analyzed. The results of these analyses were compared to the control mice results from Example 5. […]
The effects of various cyclodextrin polymers, doses, and injection schedules were tested on Npc1^nih mice. […] The body weight, motor behaviour, and survival rate of each group of mice were analyzed.

One may read the bioavailability as the share of a dose that reaches the circulation, judged against a reference dose that is usually intravenous. Lower therefore signals poor availability. `CC(O)COC[C@H]1O[C@@H]2O[C@H]3[C@H](O)[C@@H](O)[C@@H](O[C@H]4[C@H](O)[C@@H](O)[C@@H](O[C@H]5[C@H](O)[C@@H](O)[C@@H](O[C@H]6[C@H](O)[C@@H](O)[C@@H](O[C@H]7[C@H](O)[C@@H](O)[C@@H](O[C@H]8[C@H](O)[C@@H](O)[C@@H](O[C@H]1[C@H](O)[C@H]2O)O[C@@H]8COCC(C)O)O[C@@H]7COCC(C)O)O[C@@H]6COCC(C)O)O[C@@H]5COCC(C)O)O[C@@H]4COCC(C)O)O[C@@H]3COCC(C)O` (stereo partly drawn) [HPβCD, Hydroxypropyl-β-cyclodextrin]: in the series “in vivo”, the bioavailability was 42%. Also, in the series with nmf164 mice, the Median survival is 175 to 185 days. The “Body weight and motor behaviour assessment together (rescuing efficacy)” value with Npc1^nih mice is given as “rescuing efficacy”. Besides, the Survival in the series with Npc1^nih mice (control about 10-11 weeks) is listed as 16-17 weeks.
